In US20250296922A1, “POLYSUBSTITUTED PYRROLIDINE DERIVATIVE, PREPARATION METHOD THEREFOR AND USE THEREOF” (SHANGHAI WENNAI THERAPEUTICS CO LTD, priority 2023, published 2025):

Key:
[1] = Stability of the compound in liver microsomes (mouse); type: in vitro ADME, CD-1 mouse; details: 1 μM compound, 0.5 mg protein/mL; for Mouse liver microsomes T½ / half-life at 1 μM: 37° C.; for half-life at 1 μM: CD-1, mouse, liver microsomes, read-out: Mouse liver microsomes T½
Experimental: 2.1.1. working solution: 5 μL of test or control compound stock solution (10 mM DMSO solution) was diluted with 495 μL of acetonitrile (ACN) to obtain an intermediate stock solution (100 μM, 99% ACN).
2.2.2 Preparation procedure: An appropriate amount of NADPH powder was weighed and diluted with 10 mM MgCl2 buffer (working solution concentration: 10 mM; final reaction system concentration: 1 mM).
2.3.2 Preparation procedure: The appropriate concentration of liver microsomal working solution was prepared in 100 mM potassium phosphate buffer;
Acetonitrile (ACN) solution at 4° C. containing 200 ng/mL of Tolbutamide and 200 ng/ml of labetalol as internal standards 2.5. Operation steps:
2.5.2. Diluting liver microsomes with 100 mM potassium phosphate buffer to a concentration of 0.56 mg/mL.
2.5.3. Transferring 445 μL of liver microsomal working solution (0.56 mg/mL) to pre-heated incubation plates T60 and NCF60, and then pre-heating the incubation plates T60 and NCF60 for 10 minutes at 37° C. with shaking. Transferring 54 μL of liver microsomes to each well of the blank plate, adding 6 μL of NAPDH coenzyme solution to the blank plate, and finally transferring 180 μL of termination solution to the blank plate.
2.5.4 Adding 5 μL of compound working solution (100 μM) to the incubation plates T60 and NCF60 containing liver microsomes and mixing three times.
2.5.5. Adding 50 μL of buffer to the NCF60 plate and mixing three times, starting the timer and incubating at 37° C. for 60 min with the plate shaking.
2.5.6. Adding 180 μL of quenching solution and 6 μL of NAPDH coenzyme working solution sequentially to quenching plate TO, making sure that the plate was cold to prevent volatilization of the incubation solution.
2.5.7. For plate T60, mixing well three times and immediately transferring 54 μL of mixing solution (0-min time point) to quenching plate TO, then adding 44 μL of NAPDH coenzyme working solution to incubation plate T60. Starting the timer:
2.5.8. At the 5, 15, 30, 45 and 60 minute time points, adding 180 μL of quenching solution to the quenching plate and transferring 60 μL of reaction solution from the T60 plate to the quenching plate at each time point.
2.5.9. For NCF60 plates, mixing well and transferring 60 μL of reaction solution from the NCF60 incubating solution to a quenching plate containing 180 μL of quenching solution at 60th minute.
2.5.10. All plates were mixed on a shaker for 10 min and then centrifuged at 4000 rpm at 4° C. for 20 min.
2.5.11. Transferring 80 μL of supernatant to 240 μL of HPLC water and mixing on a
2.6.1. Calculating t1/2 and Clint (mic) values based on first-order elimination kinetics: […]

CYP2C9 = CYP2C9 (Homo sapiens (Human), UniProt P11712); experiment: Human liver microsomal CYP inhibition test, CYP2C9; type: in vitro ADME; details: human liver microsomes 0.2 mg/mL; substrate Diclofenac
CYP2C9, sequence (P11712 whole entry): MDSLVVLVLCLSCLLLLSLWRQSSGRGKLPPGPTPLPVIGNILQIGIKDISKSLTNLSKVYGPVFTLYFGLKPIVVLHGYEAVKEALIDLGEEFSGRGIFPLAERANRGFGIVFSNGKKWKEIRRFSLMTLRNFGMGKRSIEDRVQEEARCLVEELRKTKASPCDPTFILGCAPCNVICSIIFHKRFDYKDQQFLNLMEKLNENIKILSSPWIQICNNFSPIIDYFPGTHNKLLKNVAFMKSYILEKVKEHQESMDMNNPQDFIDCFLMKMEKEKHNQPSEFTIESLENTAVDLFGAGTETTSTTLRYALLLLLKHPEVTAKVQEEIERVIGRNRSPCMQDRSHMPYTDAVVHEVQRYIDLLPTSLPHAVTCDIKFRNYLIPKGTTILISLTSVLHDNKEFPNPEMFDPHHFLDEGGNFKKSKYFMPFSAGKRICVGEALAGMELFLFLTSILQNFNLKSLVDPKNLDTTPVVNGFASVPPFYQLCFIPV
Experimental: 3.1 Buffer solutions: (1) potassium phosphate 100 mM; (2) magnesium chloride, 33 mM;
3.2.3 Reservoir for compounds to be tested: Dissolving the compounds to be tested in DMSO to form a 10 mM DMSO solution.
3.4.1 Preparation of human liver microsomal working solution (1.27×) (final concentration: 0.2 mg/mL)
3.5.3 Adding 20 μL of substrate solution to the appropriate wells and 20 μL of potassium phosphate buffer to the blank wells;
3.5.4 Adding 2 μL of different concentrations of target compounds (final concentrations from 0.05 μM to 50 μM, 7 concentrations in total) or standard inhibitors to each well, with 2 μL of methanol solution in the non-inhibitor and blank wells;
3.5.5 Adding 1.012 mL of liver microsomes to 78.988 mL of potassium phosphate buffer, then adding 158 μL of liver microsomes solution to all wells; preheating the well plate for 10 minutes in a 37° C. water bath;
3.5.6 Weighing 129.1 mg NADPH (purchased from SyncoZymes Co. Ltd.) and adding to 15.0 mL of 33 Mm MgCl2 solution to give a 10 mM concentration, adding 20 μL to each well;
3.5.7 Mixing and incubating the well plate in a 37° C. water bath for 10 minutes, then adding 400 μL of cold termination solution at the appropriate time point;
3.5.8 Centrifuging the sample at 4000 rpm for 20 minutes to precipitate the protein. Transferring 200 μL of supernatant to 100 μL of HPLC water and shaking for 10 minutes. The samples were analyzed by LC/MS/MS;
Percentage inhibition was plotted for blank control and different concentrations of target compounds by using XL fitting or SigmaPlot and the data were analyzed by non-linear regression. IC50 values were determined by using either 3-parameter or 4-parameter logistic equations.

[2] = Pharmacokinetic experiment, dog test, intravenous injection; type: in vivo; details: male Beagle, 0.5 mg/kg
Description: 4.2.1 Abstract: Beagle was used as the test animal, the LC/MS/MS method was applied to determine the drug concentration in the plasma of Beagle at different points after intravenous injection of the compounds of the examples, to study the pharmacokinetic behavior of the compounds of the present invention in the Beagle, and to evaluate their pharmacokinetic characteristics.
4.2.2.2 Test animals: 4 male Beagles, provided by Jiangsu LingfuZhaoshengyuan Biotechnology Co. Fasting started at 5 p.m. on the day before drug administration, and the duration of fasting was no less than 12 hours, and food was resumed 4 hours after drug administration.
4.2.2.3 Drug Preparation: Weighed an amount of the test compound and prepared a completely clear solution with a final concentration of 1 mg/mL using a mixed solvent of DMSO: Solutol: Saline (5%: 5%: 90%).
4.2.2.4 Administration: a dose of 0.5 mg/kg, a volume of 0.5 mL/kg.
4.2.3 Test operation: 0.4 mL of blood samples were collected from the forelimb vein of male Beagles before and 5 min, 15 min, 30 min, 1 h, 2h, 4 h, 6h, 8 h, 10 h and 24 h after intravenous administration and placed in EDTA-K2 anticoagulant tubes. After blood samples were collected, they were placed in labelled centrifuge tubes in ice water bath and rapidly centrifuged to separate the plasma. Centrifugation conditions: 4000 rpm, 10 min, 4° C., and the plasma was placed at −70° C. or below for measurement.
Plasma samples were thawed at room temperature and 50 μL was added to 400 μL of acetonitrile containing the internal standard (40 ng/mL, terfenadine), vortexed for 1 min and then centrifuged at 15400 g for 10 min at 4° C. The supernatant was diluted 10-fold with 80% acetonitrile in water and 1 μL sample was injected for analysis.

For “4-((2R,3S,4S,5R)-3-(3,4-difluoro-2-(methoxy-d3)phenyl)-4,5-dimethyl-5-(trifluoromethyl) pyrrolidine-2-carboxamido)pyridinamide [Compound 11]”, the “Mouse liver microsomes T½” value [1] was 1.24 h, the “Mouse liver microsomes Residual (T = 60 min)” value [1] was 52.9% and the IC50 (CYP2C9) was 41.4 µM. The “Area under the curve AUC0-t” value [2] was 15.644 µg·h/mL, the “Clearance CL” value [2] was 0.00805 L/h/kg and the “half-life t½” value [2] was 57.4 h.

With `COc1c([C@H]2[C@H](C(=O)Nc3ccc[n+]([O-])c3)N[C@@](C)(C(F)(F)F)[C@H]2C)ccc(F)c1F` [Compound 7, 3-((2R,3S,4S,5R)-3-(3,4-difluoro-2-methoxyphenyl)-4,5-dimethyl-5-(trifluoromethyl)pyrrolidine-2-carboxamido)pyridine 1-oxide] the half-life at 1 μM [1] was > 2.42 h, the “Mouse liver microsomes Residual (T = 60 min)” value [1] was 75.4% and the IC50 (CYP2C9) was > 50 µM.

With `COc1c([C@H]2[C@H](C(=O)Nc3cccc(S(N)(=O)=O)c3)N[C@@](C)(C(F)(F)F)[C@H]2C)ccc(F)c1F` [Compound 8, (2R,3S,4S,5R)-3-(3,4-difluoro-2-methoxyphenyl)-4,5-dimethyl-aza-(3-aminosulfonylphenyl)-5-(trifluoromethyl) pyrrolidine-2-carboxamide] the “Mouse liver microsomes T½” value [1] was 1.51 h, the “Mouse liver microsomes Residual (T = 60 min)” value [1] was 62.9% and the IC50 (CYP2C9) was 22.9 µM.

With `COc1c([C@H]2[C@H](C(=O)Nc3ccnc(C(N)=O)c3)O[C@@](C)(C(F)(F)F)[C@H]2C)ccc(F)c1F` [VX-548, reference compound] the half-life at 1 μM [1] was 1.2 h, the “Mouse liver microsomes Residual (T = 60 min)” value [1] was 56.3% and the IC50 (CYP2C9) was 17.4 µM. For the same compound, the AUC(0-t) ([2]; dog, plasma, read-out: Area under the curve AUC0-t) was 11.1 µg·h/mL, the clearance ([2]; dog, plasma, read-out: Clearance CL (converted)) was 0.0263 L/h/kg and the half-life ([2]; dog, plasma, read-out: half-life t½ (converted)) was 19.7 h.
